Measured values published in US20240122885A1, “Endometriosis-Related Methods and Compositions” (The Regents of the University of California, priority 2021, published 2024).

Tested on: rat model of endometriosis
Test: behavioral assessment of vaginal nociception (escape response) in rat model of endometriosis
Format: in vivo
Details: 30 mg/kg/day p.o.; for Post-Treatment period (PT) median escape response: four weeks of treatment, proestrus
Source text: Baseline vaginal nociception was first assessed in rats. Then, endometriosis was induced when rats were four months of age by suturing uterine fragments within the peritoneal cavity to generate ectopic endometrium (lesions). […] In this model, four (2 mm×2 mm) pieces of uterine horn are auto transplanted onto cascading mesenteric arteries within the pelvic cavity of rats that are hormonally and immunologically intact. The present model avoids ovariectomy followed by estradiol supplementation that is common in most mouse models which eliminates the natural estradiol variations within the estrous cycle and the ability to assess drug treatment effects on fertility.
Behavioral assessment of vaginal nociception: Volumes of water (0.01, 0.15, 0.30, 0.40, 0.55, 0.70, 0.80, and 0.90 mL) were delivered via a vaginal balloon to the rat's vaginal canal. When the previously trained rat detects this stimulus as noxious, she will poke her head into a tube to break an infrared (IR) beam. This beam break terminates the stimulus (balloon deflates). During each testing session, eight different distention volumes were delivered randomly three times each ˜60 seconds apart. The maximum latency of 15 seconds is considered to be no response. The experimenter was blinded to the volumes being delivered.
Data analyses of behavioral results: Percent escape responses as a function of distention volume were measured in each session. For each rat, the escape response percentages as a function of distention volume from all sessions for each testing period were determined. The median escape response percentage and interquartile range (IQR) for all rats from each testing period was determined.
Statistical analyses were performed using Mann Whitney U test, and p-values were corrected using the Bonferroni correction method.

CC(C(=O)O)c1cccc(Oc2ccccc2)c1 (stereo not shown) [fenoprofen]
escape responses between the baseline period and the post-treatment period (any volume of water delivered, Mann Whitney U test, Bonferroni-corrected threshold 0.05): No statistically significant difference
Post-Treatment period (PT) median escape response (volume 0.01 mL): 0%
Post-Treatment period (PT) median escape response (volume 0.15 mL): 0%
Post-Treatment period (PT) median escape response (volume 0.3 mL): 0%
Post-Treatment period (PT) median escape response (volume 0.4 mL): 16.65%
Post-Treatment period (PT) median escape response (volume 0.55 mL): 33.3%
Post-Treatment period (PT) median escape response (volume 0.7 mL): 66.6%
Post-Treatment period (PT) median escape response (volume 0.8 mL): 100%
Post-Treatment period (PT) median escape response (volume 0.9 mL): 100%
escape responses during the post-treatment period compared to the post-endo surgery period (volumes of 0.15, 0.3, 0.4, 0.55, 0.7 and 0.8 mL, Mann Whitney U test, Bonferroni-corrected threshold 0.05): significantly decreased
